Results published in publication PMC12508156, “Non-canonical dihydrolipoyl transacetylase promotes chemotherapy resistance via mitochondrial tetrahydrofolate signaling” (Nature Communications, 2025).
Where “and” joins values, the source holds several entries; their conditions need not be identical. Equal entries are not always repeated.

Tests used:
KB-3-1cisR cells = test: Cell viability (CellTiter-Glo); format: cell-based, human; set-up: unit not given here; conditions: 48 h, n=1-3: biological replicates
Experimental: (§1) Cell viability was determined using the CellTiter-Glo Luminescent Cell Viability Assay. […] Subsequently, the cells were cultured in complete medium for an additional 10 days, and the resulting colonies were visualized by staining with crystal violet and quantified using ImageJ software. For cell cycle analysis, cells fixed with 70% ethanol were stained with RNase A (100 µg/mL) and propidium iodide (50 μg/ml) for 30 min at 37 °C, and DNA content distribution was measured using flow cytometry (BD Symphony A3) and analyzed with FlowJo software (v10.9). Apoptotic cell death was assessed via FITC-conjugated annexin V and propidium iodide staining.

PCI-37B cells = test: Cell viability (CellTiter-Glo); format: cell-based, human; set-up: unit not given here; conditions: 48 h, n=1-3: biological replicates
Experimental: as §1

H1299 cells = test: Cell viability (CellTiter-Glo); format: cell-based, human; set-up: unit not given here; conditions: 48 h, n=1-3: biological replicates
Experimental: as §1

A549cisR cells = test: Cell viability (CellTiter-Glo); format: cell-based, human; set-up: unit not given here; conditions: 48 h, n=1-3: biological replicates
Experimental: as §1

[1] = target: T1, pyruvate dehydrogenase complex (PDC) (Homo sapiens, UniProt P08559+P09622+P10515); test: PDC activity (PDH enzyme activity microplate assay); format: cell-based; conditions: cisplatin 24 h, NADH production from PDH reaction, normalised, n=1-3: biological replicates, listed as cis
T1 construct: endogenous in cells; host or cells: A549cisR and KB-3-1cisR cells (lysates; Abcam PDH Enzyme Activity Microplate Assay Kit)
T1 sequence (P08559 30-390): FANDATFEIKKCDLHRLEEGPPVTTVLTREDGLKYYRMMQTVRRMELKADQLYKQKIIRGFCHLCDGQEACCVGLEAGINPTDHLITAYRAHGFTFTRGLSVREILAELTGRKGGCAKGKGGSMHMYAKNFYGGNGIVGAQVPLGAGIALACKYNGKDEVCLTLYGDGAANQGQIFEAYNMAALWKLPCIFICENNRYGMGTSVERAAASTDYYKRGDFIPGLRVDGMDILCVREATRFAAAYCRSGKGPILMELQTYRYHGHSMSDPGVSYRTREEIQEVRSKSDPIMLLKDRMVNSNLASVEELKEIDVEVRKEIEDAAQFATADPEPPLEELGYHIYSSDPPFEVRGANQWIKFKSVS
T1 sequence (P10515 87-647): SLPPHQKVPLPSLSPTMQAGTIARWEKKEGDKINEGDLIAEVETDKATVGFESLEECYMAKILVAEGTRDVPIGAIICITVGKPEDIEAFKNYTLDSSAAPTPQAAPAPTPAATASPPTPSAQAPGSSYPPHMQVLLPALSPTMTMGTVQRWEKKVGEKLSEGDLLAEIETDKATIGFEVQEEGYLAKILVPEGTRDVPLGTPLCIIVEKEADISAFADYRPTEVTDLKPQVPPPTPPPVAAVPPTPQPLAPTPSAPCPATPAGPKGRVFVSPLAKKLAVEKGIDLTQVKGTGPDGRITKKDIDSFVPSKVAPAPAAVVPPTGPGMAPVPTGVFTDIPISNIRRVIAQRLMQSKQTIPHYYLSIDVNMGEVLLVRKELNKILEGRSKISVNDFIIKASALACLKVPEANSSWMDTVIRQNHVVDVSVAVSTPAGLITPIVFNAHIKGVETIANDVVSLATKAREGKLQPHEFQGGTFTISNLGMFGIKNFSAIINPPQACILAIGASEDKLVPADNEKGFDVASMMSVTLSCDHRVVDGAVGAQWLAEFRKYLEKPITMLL
T1 sequence (P09622 36-509): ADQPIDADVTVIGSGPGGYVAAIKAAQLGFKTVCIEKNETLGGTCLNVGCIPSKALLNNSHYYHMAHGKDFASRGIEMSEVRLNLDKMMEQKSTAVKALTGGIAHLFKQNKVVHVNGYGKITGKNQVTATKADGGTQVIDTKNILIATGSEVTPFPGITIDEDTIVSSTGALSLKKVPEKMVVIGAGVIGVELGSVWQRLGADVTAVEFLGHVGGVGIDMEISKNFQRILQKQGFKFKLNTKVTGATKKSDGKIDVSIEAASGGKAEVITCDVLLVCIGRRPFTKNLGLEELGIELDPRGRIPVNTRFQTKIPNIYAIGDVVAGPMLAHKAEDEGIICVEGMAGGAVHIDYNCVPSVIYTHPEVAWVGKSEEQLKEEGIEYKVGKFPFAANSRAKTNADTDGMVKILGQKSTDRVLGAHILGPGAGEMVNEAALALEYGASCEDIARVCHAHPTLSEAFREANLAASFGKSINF
Experimental: Cellular metabolic states were examined through various assays. […] Intracellular H2O2, NADPH, acetyl-CoA, and GSH/GSSG ratios were quantified using commercial assay kits as listed in the Reagents. Intracellular ATP levels were determined utilizing the ATP bioluminescent somatic cell assay and normalized to the total protein concentrations. The de novo synthesized RNA and proteins were assessed in cancer cells using commercial assays following the manufacturer’s protocols. In brief, O-propargyl-puromycin or uridine analog, 5-EU, was applied to stop translation or modify RNA. Polypeptides or modified RNA were measured using fluorescent azide with Ex/Em at 494/521 nm. PDC activity was determined by measuring the reduction of NAD+ to NADH during the conversion of pyruvate into acetyl-CoA. To estimate the activity of the pyruvate dehydrogenase complex (PDC), PDH (E1 subunit) activity was measured using the Pyruvate Dehydrogenase Enzyme Activity Microplate Assay Kit (Abcam) according to the manufacturer’s instructions. Briefly, A549^cisR and KB-3-1^cisR cells with or without DLAT knockdown were harvested, washed with PBS, and lysed using the supplied detergent solution. After quantifying protein concentration, lysates were diluted to 10 mg/ml in 1 ⅹ buffer, and 200 μl of assay solution was added to each well, and absorbance at 450 nm was measured kinetically every 30 s for 30 min at room temperature using a microplate reader.

`N.N.[Cl][Pt][Cl]` [cisplatin] was tested, and the “cisplatin IC50” value (KB-3-1cisR cells; DLAT #1 shRNA knockdown) was 5.222 and 4.723 and 5.403, the “cisplatin IC50” value (KB-3-1cisR cells; DLAT #2 shRNA knockdown) was 8.292 and 8.491 and 9.402 and the “cisplatin IC50” value (KB-3-1cisR cells; pLKO.1 control) was 35.64 and 37.47 and 39.03. For the same molecule, the “cisplatin IC50” value (PCI-37B cells; DLAT #1 shRNA knockdown) was 0.6706 and 0.655 and 0.6977, the “cisplatin IC50” value (PCI-37B cells; DLAT #2 shRNA knockdown) was 1.089 and 1.15 and 1.31 and the “cisplatin IC50” value (PCI-37B cells; pLKO.1 control) was 2.128 and 2.267 and 2.42. For the same molecule, the “cisplatin IC50” value (H1299 cells; H1299, DLAT #1 shRNA knockdown) was 4.334 and 4.088 and 4.359, the “cisplatin IC50” value (H1299 cells; H1299, DLAT #2 shRNA knockdown) was 9.212 and 9.08 and 8.246 and the “cisplatin IC50” value (H1299 cells; H1299, pLKO.1 control) was 13.89 and 13.96 and 12.36. For the same molecule, the “cisplatin IC50” value (A549cisR cells; DLAT #1 shRNA knockdown) was 3.049 and 3.093 and 3.477, the “cisplatin IC50” value (A549cisR cells; DLAT #2 shRNA knockdown) was 3.68 and 3.342 and 3.385 and the “cisplatin IC50” value (A549cisR cells; pLKO.1 control) was 10.93 and 10.63 and 11.6. For the same molecule, the PDC activity ([1]; A549cisR pLKO.1) was 0.9844 and 1.125 and 1.078, the PDC activity ([1]; A549cisR shDLAT) was 0.375 and 0.4219 and the PDC activity ([1]; KB-3-1cisR pLKO.1) was 1.12 and 1.073. For the same molecule, the PDC activity ([1]; KB-3-1cisR shDLAT) was 0.06728 and 0.05145 and 0.04749.
